Data published in PubChem BioAssay AID492970 (The Scripps Research Institute Molecular Screening Center, 2010).

Molecular target: Protein-arginine deiminase type-4 (Homo sapiens) (UniProt Q9UM07)
Assay: human PAD4 inhibitor potency, dose response, biochemical, fluorescence readout (AID 492970)
Conditions: recombinant PAD4, BAEE citrulline colorimetric readout

Chain of Protein-arginine deiminase type-4 (Homo sapiens) (Q9UM07 whole entry, looked up): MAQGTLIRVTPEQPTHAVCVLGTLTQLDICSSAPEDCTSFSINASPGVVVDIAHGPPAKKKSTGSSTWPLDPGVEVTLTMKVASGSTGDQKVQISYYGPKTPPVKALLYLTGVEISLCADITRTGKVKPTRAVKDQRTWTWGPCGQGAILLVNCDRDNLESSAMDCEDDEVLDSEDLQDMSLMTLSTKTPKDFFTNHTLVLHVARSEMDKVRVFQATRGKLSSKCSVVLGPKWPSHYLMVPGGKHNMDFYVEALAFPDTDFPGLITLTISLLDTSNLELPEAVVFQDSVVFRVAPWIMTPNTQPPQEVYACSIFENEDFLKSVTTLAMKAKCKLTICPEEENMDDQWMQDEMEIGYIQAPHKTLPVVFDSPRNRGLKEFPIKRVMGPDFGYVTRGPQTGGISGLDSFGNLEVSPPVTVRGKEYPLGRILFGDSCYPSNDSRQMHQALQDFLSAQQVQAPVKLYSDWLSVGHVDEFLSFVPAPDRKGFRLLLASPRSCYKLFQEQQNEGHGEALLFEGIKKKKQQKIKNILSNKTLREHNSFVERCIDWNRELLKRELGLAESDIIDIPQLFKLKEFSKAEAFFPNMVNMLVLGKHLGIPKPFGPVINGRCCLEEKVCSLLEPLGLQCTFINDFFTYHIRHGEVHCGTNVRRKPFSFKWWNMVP

## COC1=C(N)C(=O)c2nc(-c3nc(C(=O)O)c(C)c(-c4ccc(OC)c(OC)c4O)c3N)ccc2C1=O
  IC50: 2500 nM
